According to patent US20260234153A1, “NON-COVALENT DIMER CATION OF PURINE/PYRIMIDINE AND AMINO ACID, SALT THEREOF, PREPARATION METHOD THEREFOR, AND USE THEREOF” (Suzhou Protonation Chain Biotechnology Co., Ltd, priority 2023, published 2026):

Experiments:
[1] = tested on: GES-1 human gastric mucosal epithelial cells; test: Ethanol induced damage model of gastric mucosal epithelial cells, cell viability; assay type: cell-based; conditions: GES1, GES-1 cells, 7% ethanol 12 h, then compound concentration 0.5 mg/mL, 24 h
Protocol: Chronic alcoholics are prone to gastric mucosal damage due to long-term alcohol damage.
The salts of example 51 and example 57 were taken as experimental compounds, and glycyrrhetinic acid was taken as a control compound. A blank control group (without ethanol) and a model group (with ethanol but without the salts of the examples or glycyrrhetinic acid) were set.
The cells were cultured in a complete RPMI 1640 medium for 6 h.
(§1) Then, the cell viability was detected.

[2] = tested on: SH-SY5Y human neuroblastoma cells; test: Parkinson's disease cell model (6-OHDA), cell viability; assay type: cell-based; conditions: 24 h, read-out: Cell viability (%)
From the text: The salts of example 51 and examples 57 were taken as experimental compounds, and selegiline was taken as a control compound.
as §1

CC1(C)[C@@H](O)CC[C@]2(C)[C@H]3C(=O)C=C4[C@@H]5C[C@@](C)(C(=O)O)CC[C@]5(C)CC[C@@]4(C)[C@]3(C)CC[C@@H]12 [Glycyrrhetinic acid, glycyrrhetinic acid]
viability at 500 µg/mL [1]: 61.8%

C#CCN(C)[C@H](C)Cc1ccccc1 [Selegiline, selegiline]
viability at 500 µg/mL [2]: 37.5%
